# Values quoted from earlier work as cited in patent US20070027107A1, “Compositions and methods for treating estrogen-dependent diseases and conditions” (priority 2005, published 2007).
# Details: free carboxylic acids (without counterion) of alginate residues
row,pKa,SMILES
1,3.38,"O=C[C@@H](O)[C@@H](O)[C@H](O)[C@H](O)C(=O)O [M, D-mannuronic acid]"
2,3.65,"O=C[C@@H](O)[C@@H](O)[C@H](O)[C@@H](O)C(=O)O [G, L-guluronic acid]"
